Measurements from ChEMBL document CHEMBL1153627, “Optimization of piperidin-4-yl-urea-containing melanin-concentrating hormone receptor 1 (MCH-R1) antagonists: Reducing hERG-associated liabilities” (Bioorg Med Chem Lett, 2009).

Assay: Clearance in rat
Format: ADME, organism-based
Conditions: in vivo

clearance: 154 mL/min/kg
Structure (SMILES): O=C(NC1CCN(Cc2ccn(-c3ccc(C(F)(F)F)cc3)c2)CC1)N[C@H](CO)c1ccccc1
